Measured values taken from the supplement of paper PMC10331698.
± gives the standard deviation of the averaged measurements.

Tests used:
Assay in all cases: level (log10 ratio to DMSO vehicle control); higher = higher biomarker level / cell amount than vehicle control
[1] = compound: C=C(C)C(=O)OCCC(F)(F)C(F)(F)C(F)(F)C(F)(F)C(F)(F)C(F)(F)C(F)(F)C(F)(F)F [8:2 Fluorotelomer methacrylate] (in DMSO)
Method: (§1)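 BioMAP Diversity Plus panel of 12 human primary cell co-culture systems (3C, 4H, LPS, SAg, BT, BF4T, BE3C, CASM3C, HDF3CGF, KF3CT, MyoF, Mphg). Compounds were added 1 h before stimulation and left for 24 h (MyoF 48 h; BT 72 h for soluble read-outs or 6 d for IgG). Biomarkers were read by ELISA, cytotoxicity by SRB, PBMC viability and proliferation by Alamar Blue. Each well value was divided by the mean of 8 DMSO control wells on the same plate and log10 transformed; duplicate blinded samples were tested at 4 concentrations.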

[2] = compound: CN(C(=O)C(F)(F)C(F)(F)C(F)(F)F)[Si](C)(C)C [N-Methyl-N-trimethylsilylheptafluorobutyramide] (in DMSO)
Method: as §1

[3] = compound: O=C(O)C=C(C(F)(F)F)C(F)(F)F [3,3-Bis(trifluoromethyl)-2-propenoic acid] (in DMSO)
Method: as §1

[4] = compound: O=S(=O)(O)C(F)(F)C(F)(F)C(F)(F)C(F)(F)C(F)(F)C(F)(F)C(F)(F)F [Perfluoroheptanesulfonic acid] (in DMSO)
Method: as §1

[5] = compound: OCC(F)(F)OC(F)(F)C(F)(F)OC(F)(F)C(F)(F)OC(F)(F)CO [1H,1H,11H,11H-Perfluorotetraethylene glycol] (in DMSO)
Method: as §1

[6] = compound: OCCC(F)(F)C(F)(F)C(F)(F)C(F)(F)F [4:2 Fluorotelomer alcohol] (in DMSO)
Method: as §1

| Test System | level (log10) ([1]; 6700 nM) | level (log10) ([1]; 20000 nM) | level (log10) ([2]; 6700 nM) | level (log10) ([2]; 20000 nM) | level (log10) ([2]; 60000 nM) | level (log10) ([3]; 6700 nM) | level (log10) ([3]; 20000 nM) | level (log10) ([3]; 60000 nM) | level (log10) ([4]; 1500 nM) | level (log10) ([4]; 4400 nM) | level (log10) ([4]; 13000 nM) | level (log10) ([4]; 40000 nM) | level (log10) ([5]; 6700 nM) | level (log10) ([5]; 20000 nM) | level (log10) ([5]; 60000 nM) | level (log10) ([6]; 6700 nM) | level (log10) ([6]; 20000 nM) | level (log10) ([6]; 60000 nM) |
| --- | --- | --- | --- | --- | --- | --- | --- | --- | --- | --- | --- | --- | --- | --- | --- | --- | --- | --- |
| BF4T:CCL2/MCP-1 | -0.0005 ± 0.028 | -0.051 ± 0.031 | 0.002 ± 0.0014 | 0.002 ± 0.0042 | 0.018 ± 0.018 | 0.0005 ± 0.0021 | -0.052 ± 0.031 | -0.0635 ± 0.0064 | 0.009 ± 0.041 | 0 ± 0.013 | -0.092 ± 0.028 | 0.016 ± 0.014 | -0.0295 ± 0.012 | -0.119 ± 0.016 | -0.227 ± 0.013 | 0.0035 ± 0.073 | -0.0015 ± 0.021 | 0.0275 ± 0.005 |
| BF4T:CXCL8/IL-8 | -0.026 ± 0.014 | -0.023 ± 0.021 | -0.008 ± 0.024 | -0.0025 ± 0.018 | 0.0025 ± 0.019 | -0.0135 ± 0.022 | -0.022 ± 0.0099 | 0.0345 ± 0.05 | 0.015 ± 0.014 | 0.006 ± 0.0014 | 0.049 ± 0.0014 | 0.121 ± 0.02 | -0.0155 ± 0.026 | -0.0265 ± 0.026 | -0.0245 ± 0.03 | 0.0235 ± 0.039 | 0.035 ± 0.0014 | 0.082 ± 0.0014 |
| BF4T:SRB | -0.0045 ± 0.0035 | -0.0005 ± 0.00071 | -0.0055 ± 0.00071 | -0.003 ± 0.0042 | -0.0005 ± 0.00071 | 0.0015 ± 0.005 | -0.006 ± 0.011 | 0.0045 ± 0.0092 | 0.0075 ± 0.018 | -0.008 ± 0.0014 | -0.0125 ± 0.0021 | -0.016 ± 0.021 | -0.0035 ± 0.0021 | -0.0065 ± 0.0021 | -0.0345 ± 0.033 | -0.0075 ± 0.00071 | -0.0105 ± 0.0078 | -0.0045 ± 0.012 |
| 4H:CD87/uPAR | -0.0325 ± 0.0035 | -0.0345 ± 0.042 | 0.011 ± 0.021 | 0.0135 ± 0.016 | 0.0055 ± 0.019 | -0.053 ± 0.038 | -0.0455 ± 0.037 | -0.025 ± 0.062 | -0.0135 ± 0.032 | 0.0325 ± 0.00071 | 0.0455 ± 0.005 | 0.0355 ± 0.029 | 0.001 ± 0.082 | -0.0065 ± 0.053 | 0.0315 ± 0.012 | -0.026 ± 0.011 | -0.0105 ± 0.023 | -0.005 ± 0.0028 |
| 3C:CXCL8/IL-8 | -0.005 ± 0.017 | 0.0305 ± 0.012 | -0.016 ± 0.0071 | -0.017 ± 0.0042 | 0.007 ± 0.017 | 0.038 ± 0.02 | 0.0255 ± 0.04 | 0.061 ± 0.071 | 0.007 ± 0.086 | -0.0115 ± 0.013 | 0.0015 ± 0.03 | 0.055 ± 0.054 | 0.003 ± 0.025 | -0.009 ± 0.0099 | -0.0045 ± 0.0035 | -0.002 | 0.017 ± 0.031 | 0.044 ± 0.059 |
| 3C:SRB | -0.0205 ± 0.0035 | -0.01 ± 0.021 | 0.0135 ± 0.013 | 0.0035 ± 0.032 | 0.0075 ± 0.011 | 0.0105 ± 0.019 | -0.005 ± 0.025 | -0.062 ± 0.03 | -0.0295 ± 0.023 | -0.0275 ± 0.0078 | -0.0065 ± 0.016 | -0.0125 ± 0.023 | 0.003 ± 0.0071 | -0.0185 ± 0.013 | -0.079 ± 0.033 | -0.006 ± 0.0085 | -0.0065 ± 0.011 | -0.0045 ± 0.0092 |
| 4H:SRB | -0.0205 ± 0.028 | -0.0105 ± 0.042 | 0.005 ± 0.0085 | 0.0055 ± 0.022 | -0.003 ± 0.011 | -0.008 ± 0.0042 | -0.026 ± 0.027 | -0.0615 ± 0.015 | -0.0185 ± 0.012 | -0.007 ± 0.014 | -0.0055 ± 0.013 | -0.0065 ± 0.018 | -0.0045 ± 0.013 | -0.032 ± 0.023 | -0.0795 ± 0.037 | -0.0005 ± 0.012 | -0.004 ± 0.0014 | 0.0135 ± 0.015 |
| LPS:CD141/Thrombomodulin | -0.021 ± 0.038 | -0.064 ± 0.0099 | -0.0125 ± 0.0064 | -0.014 ± 0.0085 | -0.018 ± 0.014 | -0.0835 ± 0.093 | -0.091 ± 0.14 | -0.026 ± 0.12 | 0.028 ± 0.011 | -0.0075 ± 0.026 | 0.006 ± 0.03 | -0.0065 ± 0.023 | 0.0725 ± 0.076 | 0.09 ± 0.067 | 0.157 ± 0.056 | -0.037 ± 0.034 | 0.0025 ± 0.03 | -0.005 ± 0.02 |
